Results reported in paper PMC12406256, “Food Additives Inhibit Intestinal Drug Transporters but Have Limited Effect on In Vitro Drug Permeability” (Molecular Pharmaceutics, 2025).

Key:
MRP2 = target: T1, MRP2 (Homo sapiens, UniProt Q92887); assay: Vesicular transport assay, MRP2 (CDCF substrate); format: biochemical; details: food additive 50 μM; CDCF 5 μM; n = 1
T1 construct: made in house; host or cells: Spodoptera frugiperda Sf9 cells, crude membrane vesicles

Caco-2 cells [1] = assay: in vitro; details: Caco-2
Experimental: Caco-2 cells were cultured on 12-well Transwell polycarbonate membrane inserts with a 0.4 μm pore size (Corning Incorporated, Kennebunk, ME) at 37 °C and 5% CO2 for 21–24 days prior to the experiment as described in Hubatsch et al. The culture medium (DMEM, 10% FBS, 1% MEM nonessential amino acids, 100 U/mL penicillin–streptomycin) was changed every second day. Transepithelial electrical resistance (TEER) was measured before and after the permeability assay with a Millicell-ERS electrode (Millipore, Bedford, MA) attached to an epithelial volt ohm meter (EVOM, World Precision Instruments, Sarasota, FL). The permeability assay was performed according to a previously published protocol. […] Sulfasalazine is a substrate of BCRP and OATP2B1. , The DMSO concentration was 0.45–1.5%. Before the experiment, inserts were washed and preincubated in the transport buffer for 20 min shaking at 37 °C. Sulfasalazine and LY permeability was measured in the apical to basolateral direction at five time points (20, 40, 60, 90, and 120 min) and, additionally, in the basolateral to apical direction to calculate the efflux ratio. […] […] LY (250 μM) was added on the donor side of all inserts to measure the integrity of the cell monolayer. Before analysis, samples were centrifuged at 2755g for 30 min, and donor solution and mass balance samples were diluted 1:100. LY fluorescence was measured with a Varioskan LUX microplate reader (Thermo Fisher Scientific) at 430 nm excitation and 538 nm emission. Sulfasalazine was analyzed with ultra-performance liquid chromatography (UPLC) using a Syncronis C18 column (1.7 μm particle size, 50 × 2.1 mm + 0.2 μm Waters online filter) (Thermo Fisher Scientific) coupled with Waters Acquity UPLC interfaced with a PDA detector both controlled by the Waters Empower software version 3. The UPLC was operated in gradient mode at 354 nm. Solvents were 0.015 M phosphate buffer pH 2 (A), acetonitrile (B), 1:1 acetonitrile/methanol (strong needle wash), and 20% acetonitrile (weak needle wash). Column temperature was 30 °C, injection volume was 10 μL, retention time was 1.46 min, and flow rate was 0.5 mL/min. The gradient was 25% B → 70% B (0–3 min), 70% B → 25% B (3.00–3.01 min), and 25% B (3.01–4 min). The data were collected for the first 180 s of each UPLC run.
In the Caco-2 permeability assay, the apparent permeability (P app) of sulfasalazine was calculated using the following equation: Papp=(dQ/dt)(1/A×C0) where dQ/dt is the rate of permeation across the cells (nmol/min), A is the surface area of the filter (1.12 cm^2), and C 0 is the initial concentration in the donor chamber (μM). The efflux ratio of sulfasalazine was calculated by dividing the P app in the basolateral to the apical direction by the P app in the apical to basolateral direction. The TEER for each cell insert was calculated before and after the experiment by multiplying the mean resistance of three measurements by the surface area of the filter (1.12 cm^2). Mass balance was calculated by dividing the […]. All experiments were done in triplicate wells, and the IC50 and Caco-2 permeability assays were repeated three times.

Caco-2 cells [2] = system: Caco-2 cells; set-up: method as in not given; details: micellar formulation, ref not given; cited from earlier work
BCRP [3] = target: T2, BCRP (Homo sapiens, UniProt Q9UNQ0); details: cited from earlier work
T2 sequence (Q9UNQ0 1-655): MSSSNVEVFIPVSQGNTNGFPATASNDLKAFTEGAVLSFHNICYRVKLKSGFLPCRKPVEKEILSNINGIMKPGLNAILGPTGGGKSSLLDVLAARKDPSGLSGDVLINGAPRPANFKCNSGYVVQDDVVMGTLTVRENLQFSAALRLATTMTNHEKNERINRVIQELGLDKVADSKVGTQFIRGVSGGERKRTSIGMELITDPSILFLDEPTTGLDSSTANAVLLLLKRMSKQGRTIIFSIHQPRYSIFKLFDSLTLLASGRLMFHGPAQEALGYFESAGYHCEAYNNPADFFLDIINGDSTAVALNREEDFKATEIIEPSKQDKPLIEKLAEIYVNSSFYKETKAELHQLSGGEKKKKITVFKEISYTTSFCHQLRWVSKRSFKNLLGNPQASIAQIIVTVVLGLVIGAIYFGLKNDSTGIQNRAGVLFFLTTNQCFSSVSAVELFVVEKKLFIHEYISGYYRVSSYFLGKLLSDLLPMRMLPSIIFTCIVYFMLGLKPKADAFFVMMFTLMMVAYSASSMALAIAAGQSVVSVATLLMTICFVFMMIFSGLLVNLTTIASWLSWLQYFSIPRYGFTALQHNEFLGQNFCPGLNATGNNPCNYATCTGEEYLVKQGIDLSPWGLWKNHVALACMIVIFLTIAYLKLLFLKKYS

P-gp [4] = target: T3, P-gp (Homo sapiens, UniProt P08183); assay: Vesicular transport assay, P-gp (N-methyl-quinidine substrate)
BCRP [5] = target: T2, BCRP; assay: Vesicular transport assay, BCRP (Lucifer yellow substrate); format: biochemical; set-up: made in house; host or cells: Spodoptera frugiperda Sf9 cells, crude membrane vesicles
P-gp [6] = target: T3, P-gp; set-up: made in house; host or cells: Spodoptera frugiperda Sf9 cells, crude membrane vesicles; details: Caco-2 cells; ref previous studies; cited from earlier work

T3 sequence (P08183 whole entry): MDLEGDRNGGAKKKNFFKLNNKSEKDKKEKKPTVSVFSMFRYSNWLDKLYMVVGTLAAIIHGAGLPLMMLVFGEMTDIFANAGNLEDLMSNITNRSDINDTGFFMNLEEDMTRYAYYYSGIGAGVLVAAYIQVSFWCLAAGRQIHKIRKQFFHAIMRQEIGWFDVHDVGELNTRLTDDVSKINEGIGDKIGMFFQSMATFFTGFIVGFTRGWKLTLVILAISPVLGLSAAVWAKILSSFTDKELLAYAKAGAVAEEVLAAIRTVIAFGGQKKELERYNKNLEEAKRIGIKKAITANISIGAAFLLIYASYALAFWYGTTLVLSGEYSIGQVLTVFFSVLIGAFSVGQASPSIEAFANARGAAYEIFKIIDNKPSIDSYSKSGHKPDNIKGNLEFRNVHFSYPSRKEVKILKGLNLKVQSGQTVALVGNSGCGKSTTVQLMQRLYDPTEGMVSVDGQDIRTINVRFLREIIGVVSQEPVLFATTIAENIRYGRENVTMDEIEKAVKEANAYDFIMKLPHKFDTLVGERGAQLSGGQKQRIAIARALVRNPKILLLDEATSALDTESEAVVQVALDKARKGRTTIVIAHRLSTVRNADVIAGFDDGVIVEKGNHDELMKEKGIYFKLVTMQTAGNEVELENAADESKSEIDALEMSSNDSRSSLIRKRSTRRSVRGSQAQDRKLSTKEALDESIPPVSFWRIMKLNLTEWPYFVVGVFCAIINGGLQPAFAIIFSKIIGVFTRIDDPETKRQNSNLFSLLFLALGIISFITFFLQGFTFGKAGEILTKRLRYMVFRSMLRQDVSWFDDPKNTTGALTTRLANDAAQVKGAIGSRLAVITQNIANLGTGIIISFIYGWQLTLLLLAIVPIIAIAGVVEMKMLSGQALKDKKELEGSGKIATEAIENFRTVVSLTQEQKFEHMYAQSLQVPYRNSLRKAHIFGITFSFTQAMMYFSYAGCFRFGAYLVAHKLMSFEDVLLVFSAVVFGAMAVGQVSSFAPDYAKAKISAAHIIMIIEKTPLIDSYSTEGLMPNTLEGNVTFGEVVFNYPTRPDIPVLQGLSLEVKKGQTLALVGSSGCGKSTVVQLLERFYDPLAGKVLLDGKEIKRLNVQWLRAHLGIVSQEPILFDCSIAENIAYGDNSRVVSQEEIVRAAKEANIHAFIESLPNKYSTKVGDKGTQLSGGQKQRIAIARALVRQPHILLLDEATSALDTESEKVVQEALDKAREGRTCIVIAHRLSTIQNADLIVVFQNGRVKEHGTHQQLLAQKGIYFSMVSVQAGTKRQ
T1 sequence (Q92887 whole entry): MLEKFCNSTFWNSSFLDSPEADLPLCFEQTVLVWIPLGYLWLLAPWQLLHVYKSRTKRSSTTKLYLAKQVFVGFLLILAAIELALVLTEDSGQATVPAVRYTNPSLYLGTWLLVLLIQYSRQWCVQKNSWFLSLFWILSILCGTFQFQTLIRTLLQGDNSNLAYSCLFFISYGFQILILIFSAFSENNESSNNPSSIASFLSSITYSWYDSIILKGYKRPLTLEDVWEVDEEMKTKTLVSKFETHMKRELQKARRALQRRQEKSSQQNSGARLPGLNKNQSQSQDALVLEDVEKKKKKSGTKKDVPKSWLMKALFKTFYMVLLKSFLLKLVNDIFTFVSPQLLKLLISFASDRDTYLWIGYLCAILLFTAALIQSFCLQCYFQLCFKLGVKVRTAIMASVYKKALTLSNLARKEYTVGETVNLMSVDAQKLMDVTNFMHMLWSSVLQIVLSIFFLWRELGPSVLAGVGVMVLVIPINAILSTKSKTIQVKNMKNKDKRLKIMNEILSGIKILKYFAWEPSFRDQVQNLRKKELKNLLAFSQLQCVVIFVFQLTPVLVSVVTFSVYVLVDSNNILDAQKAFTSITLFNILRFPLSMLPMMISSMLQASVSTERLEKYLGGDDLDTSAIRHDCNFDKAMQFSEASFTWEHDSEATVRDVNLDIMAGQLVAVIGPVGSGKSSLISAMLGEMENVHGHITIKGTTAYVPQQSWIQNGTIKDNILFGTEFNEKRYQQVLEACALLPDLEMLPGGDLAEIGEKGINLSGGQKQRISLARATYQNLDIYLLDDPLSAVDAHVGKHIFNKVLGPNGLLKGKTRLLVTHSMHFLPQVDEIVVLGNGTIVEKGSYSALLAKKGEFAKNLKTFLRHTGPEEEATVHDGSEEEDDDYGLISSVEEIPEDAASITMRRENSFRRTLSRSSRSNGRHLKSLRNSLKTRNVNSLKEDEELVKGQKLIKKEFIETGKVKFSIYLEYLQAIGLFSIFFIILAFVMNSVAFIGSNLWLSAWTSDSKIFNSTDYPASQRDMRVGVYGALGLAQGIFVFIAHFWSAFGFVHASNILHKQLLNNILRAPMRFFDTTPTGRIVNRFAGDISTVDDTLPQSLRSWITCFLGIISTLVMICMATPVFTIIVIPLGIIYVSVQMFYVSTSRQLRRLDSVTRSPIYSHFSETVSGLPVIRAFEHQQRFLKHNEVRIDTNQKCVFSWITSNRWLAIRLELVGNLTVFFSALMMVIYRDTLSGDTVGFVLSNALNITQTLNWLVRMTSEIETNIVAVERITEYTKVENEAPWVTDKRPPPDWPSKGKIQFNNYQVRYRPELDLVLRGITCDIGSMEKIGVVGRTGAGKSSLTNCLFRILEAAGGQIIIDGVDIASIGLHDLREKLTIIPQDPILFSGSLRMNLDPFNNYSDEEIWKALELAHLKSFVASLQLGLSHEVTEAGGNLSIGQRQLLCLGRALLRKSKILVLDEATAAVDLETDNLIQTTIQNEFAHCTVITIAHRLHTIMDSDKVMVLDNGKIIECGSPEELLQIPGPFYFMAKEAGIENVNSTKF

CC1=C(/C=C/C(C)=C/C=C/C(C)=C/C=C/C=C(C)/C=C/C=C(C)/C=C/C2=C(C)CCCC2(C)C)C(C)(C)CCC1 [beta-carotene]
inhibition of MRP2 substrate accumulation (MRP2): did not inhibit
effect on sulfasalazine permeability (P app) (Caco-2 cells [1]): None of the selected food additives showed any effect
applied dose recovered in the basolateral chamber (Caco-2 cells [2]): ≤ 35%
BCRP inhibition potency (BCRP [3]): weak inhibition potency
IC50 (P-gp [4]): 3.2 µM
inhibition at 50 μM (P-gp [4]; Sf9-derived crude membrane vesicles expressing P-gp, pH 7, probe N-methyl-quinidine 2 μM): ≥ 50%
IC50 (BCRP [5]; Lucifer yellow 50 μM, membrane vesicles, n = 3, read-out: IC50 (95% CI), BCRP): 12.1 µM
inhibition at 50 μM (BCRP [5]; Sf9-derived crude membrane vesicles expressing BCRP, pH 7, probe Lucifer yellow 50 μM, food additive 50 μM, n = 1, read-out: inhibition of BCRP substrate accumulation): ≥ 50%
P-gp inhibition in Caco-2 cells (P-gp [6]): inhibitor of P-gp
